23 molecules from US20060154923A1, “N-phenyl-3-cyclopropylpyrazole-4-carbonitriles as ectoparasiticidal agents” (priority 2002, published 2006) can be followed below.

SMILES strings stand for the structures.

In series [1] the test system is Ctenocephatides felis, adult cat fleas. The experiment in a line: Contact activity against adult cat fleas, coated glass vial assay. The following applies: for % Mortality 4 h: Conc. 2 ug/cm2, 4 h; for % Mortality 24 h: Conc. 2 ug/cm2, 24 h. The format is in vivo. The procedure: Evaluation of the Efficacy of Test Compounds Against Adult Cat Fleas
The contact activity of a test compound against Ctenocephatides felis, adult cat fleas, is evaluated in a coated, glass vial assay. In this evaluation, a solution of test compound in acetone is allowed to dry on the interior surface of a 20 mL vial. Ten unfed adult cat fleas are added to the treated vial and mortality is assessed periodically for up to 48 h. All treatments are replicated 2 times. The data are averaged.

For series [2], the system named is newly emerged larvae of Lucilia sericata, blowfly. The experiment in a line: Efficacy against blowfly larvae, treated paper/serum bioassay. The format is in vivo. The settings on record: blowfly larvae. The method, then: Evaluation of Efficacy of Test Compounds Against Blowfly Larvae
The efficacy of a test compound against newly emerged larvae of Lucilia sericata, blowfly, is evaluated using a treated paper/serum bioassay. In this evaluation, a solution of test compound in acetone is applied to a filter paper disc and the disc is allowed to dry. Bovine serum and about 20 newly emerged blowfly larvae are added to the treated paper disc and the mortality is assessed at 24 h and 48 h. The data are averaged.

Take `CCCOC=Nc1c(C#N)c(C2(C)CC2(Cl)Cl)nn1-c1c(Cl)cc(C(F)(F)F)cc1Cl` (racemic) [Example 39]: the “% Mortality 4 h” value in series [1] worked out at 0%. The “% Mortality 24 h” value amounted to 70% in series [1], 0% in series [2] (Conc. 0.2 ppm), 70% in series [2] (Conc. 2.0 ppm) and 100% in series [2] (Conc. 20.0 ppm). Also, the “% Mortality 48 h” value in series [2] (Conc. 0.2 ppm) is 0%; in series [2] (Conc. 2.0 ppm) it was 70%; in series [2] (Conc. 20.0 ppm), 100%.

Turning to `CCOC=Nc1c(C#N)c(C2(C)CC2(Cl)Cl)nn1-c1c(Cl)cc(C(F)(F)F)cc1Cl` (racemic) [Example 40], in series [1], the “% Mortality 4 h” value came out at 0% and the “% Mortality 24 h” value amounted to 100%. Further, in series [2] (Conc. 2.0 ppm), the “% Mortality 24 h” value was 0% and the “% Mortality 48 h” value was 0%. Besides, in series [2] (Conc. 20.0 ppm), the “% Mortality 24 h” value amounted to 100% and the “% Mortality 48 h” value is on record as 100%.

Consider `CC1(c2nn(-c3c(Cl)cc(C(F)(F)F)cc3Cl)cc2C#N)CC1(Cl)Cl` (stereo not drawn) [Example 5], for which, in series [1], the “% Mortality 4 h” value is 0% and the “% Mortality 24 h” value came to 33%.

For the molecule `CC1(c2nn(-c3c(Cl)cc(Cl)cc3Cl)cc2C#N)CC1(Cl)Cl` (stereo not drawn) [Example 6], in series [2] (Conc. 1.0 ppm), the “% Mortality 24 h” value was found to be 10% and the “% Mortality 48 h” value amounted to 10%. Also, in series [2] (Conc. 20.0 ppm), the “% Mortality 24 h” value came out at 70% and the “% Mortality 48 h” value amounted to 70%.

On to `COc1ccc(C2(c3nn(-c4c(Cl)cc(C(F)(F)F)cc4Cl)cc3C#N)CC2)cc1` [Example 9], for which, in series [2] (Conc. 20.0 ppm), the “% Mortality 24 h” value is recorded as 0% and the “% Mortality 48 h” value is listed as 0%.

For `N#Cc1cn(-c2c(Cl)cc(C(F)(F)F)cc2Cl)nc1C1(c2ccc(Cl)cc2)CC1` [Example 10], in series [2] (Conc. 20.0 ppm), the “% Mortality 24 h” value was 0% and the “% Mortality 48 h” value came out at 0%.

For `CC1(c2nn(-c3c(Cl)cc(Cl)cc3Cl)cc2C#N)CC1` [Example 11], in series [2] (Conc. 20.0 ppm), the “% Mortality 24 h” value amounted to 0% and the “% Mortality 48 h” value came out at 0%.

For `COc1ccc(C2(c3nn(-c4c(Cl)cc(Cl)cc4Cl)cc3C#N)CC2)cc1` [Example 13], in series [2] (Conc. 20.0 ppm), the “% Mortality 24 h” value is recorded as 0% and the “% Mortality 48 h” value is 0%.

As for `CC1(c2nn(-c3c(Cl)cc(Cl)cc3Cl)cc2C#N)CC1(Br)Br` (stereo not drawn) [Example 15], the “% Mortality 4 h” value in series [1] is 10%. In addition, the “% Mortality 24 h” value in series [1] is listed as 80%; in series [2] (Conc. 0.2 ppm), 0%; in series [2] (Conc. 2.0 ppm), 95%; in series [2] (Conc. 20.0 ppm), 90%. Also, the “% Mortality 48 h” value in series [2] (Conc. 0.2 ppm) came out at 0%; in series [2] (Conc. 2.0 ppm), 95%; in series [2] (Conc. 20.0 ppm), 90%.

As for `N#Cc1cn(-c2c(Cl)cc(C(F)(F)F)cc2Cl)nc1C1(c2ccc(Cl)cc2Cl)CC1` [Example 17], in series [2] (Conc. 20.0 ppm), the “% Mortality 24 h” value came to 0% and the “% Mortality 48 h” value was 0%.

On to `N#Cc1cn(-c2c(Cl)cc(Cl)cc2Cl)nc1C1(c2ccc(Cl)cc2Cl)CC1` [Example 18], for which, in series [2] (Conc. 20.0 ppm), the “% Mortality 24 h” value is given as 0% and the “% Mortality 48 h” value is 0%.

As for `N#Cc1c(C2CC2)nn(-c2c(Cl)cc(C(F)(F)F)cc2Cl)c1N` [Example 24], in series [2] (Conc. 10.0 ppm), the “% Mortality 24 h” value is on record as 0% and the “% Mortality 48 h” value is given as 0%.

Consider `CC1(c2nn(-c3c(Cl)cc(Cl)cc3Cl)c(N)c2C#N)CC1(Cl)Cl` (stereo not drawn) [Example 25], for which, in series [2] (Conc. 10.0 ppm), the “% Mortality 24 h” value is reported as 0% and the “% Mortality 48 h” value was 0%. Further, in series [2] (Conc. 20.0 ppm), the “% Mortality 24 h” value came to 5% and the “% Mortality 48 h” value was 5%.

For the molecule `N#Cc1c(C2CC2)nn(-c2c(Cl)cc(C(F)(F)F)cc2Cl)c1Cl` [Example 26], the “% Mortality 4 h” value in series [1] is reported as 100%. Moreover, the “% Mortality 24 h” value in series [1] amounted to 100%; in series [2] (Conc. 2.0 ppm) it was 0%; in series [2] (Conc. 10.0 ppm), 0%; in series [2] (Conc. 20.0 ppm), 97%. Besides, the “% Mortality 48 h” value in series [2] (Conc. 2.0 ppm) is 0%; in series [2] (Conc. 10.0 ppm) it was 50%; in series [2] (Conc. 20.0 ppm), 97%.

For the molecule `CC1(c2nn(-c3c(Cl)cc(Cl)cc3Cl)c(Cl)c2C#N)CC1(Cl)Cl` (stereo not drawn) [Example 27], in series [1], the “% Mortality 4 h” value amounted to 10%. The “% Mortality 24 h” value came out at 100% in series [1], 0% in series [2] (Conc. 0.2 ppm), 100% in series [2] (Conc. 2.0 ppm) and 100% in series [2] (Conc. 20.0 ppm). Also, the “% Mortality 48 h” value came out at 0% in series [2] (Conc. 0.2 ppm), 100% in series [2] (Conc. 2.0 ppm) and 100% in series [2] (Conc. 20.0 ppm).

Regarding `CC1(c2nn(-c3c(Cl)cc(Cl)cc3Cl)c(Br)c2C#N)CC1(Cl)Cl` (stereo not drawn) [Example 28], the “% Mortality 4 h” value in series [1] turned out to be 0%. Further, the “% Mortality 24 h” value in series [1] is 10%; in series [2] (Conc. 0.2 ppm) it was 0%; in series [2] (Conc. 2.0 ppm), 95%; in series [2] (Conc. 20.0 ppm) it was 100%. Moreover, the “% Mortality 48 h” value in series [2] (Conc. 0.2 ppm) is given as 0%; in series [2] (Conc. 2.0 ppm), 100%; in series [2] (Conc. 20.0 ppm) it was 100%.

As to `CC1(c2nn(-c3c(Cl)cc(C(F)(F)F)cc3Cl)c([N+](=O)[O-])c2C#N)CC1(Cl)Cl` (stereo not drawn) [Example 30], in series [1], the “% Mortality 4 h” value was 0% and the “% Mortality 24 h” value was 100%. In series [2] (Conc. 10.0 ppm), the “% Mortality 24 h” value was 10% and the “% Mortality 48 h” value amounted to 50%. Moreover, in series [2] (Conc. 20.0 ppm), the “% Mortality 24 h” value is 20% and the “% Mortality 48 h” value worked out at 20%.

Turning to `CCN(CC)c1c(C#N)c(C2(C)CC2(Cl)Cl)nn1-c1c(Cl)cc(C(F)(F)F)cc1Cl` (stereo not drawn) [Example 33], the “% Mortality 4 h” value in series [1] is given as 20%. The “% Mortality 24 h” value in series [1] is recorded as 100%; in series [2] (Conc. 0.2 ppm), 0%; in series [2] (Conc. 2.0 ppm) it was 90%; in series [2] (Conc. 20.0 ppm), 100%. Further, the “% Mortality 48 h” value in series [2] (Conc. 0.2 ppm) came out at 0%; in series [2] (Conc. 2.0 ppm) it was 90%; in series [2] (Conc. 20.0 ppm), 100%.

For `CC(C)(C)C(=O)Nc1c(C#N)c(C2(C)CC2(Cl)Cl)nn1-c1c(Cl)cc(C(F)(F)F)cc1Cl` (stereo not drawn) [Example 34], in series [2] (Conc. 20.0 ppm), the “% Mortality 24 h” value amounted to 0% and the “% Mortality 48 h” value worked out at 0%.

On to `CC1(c2nn(-c3c(Cl)cc(C(F)(F)F)cc3Cl)c(N(C(=O)C3CC3)C(=O)C3CC3)c2C#N)CC1(Cl)Cl` (stereo not drawn) [Example 35], for which, in series [2] (Conc. 20.0 ppm), the “% Mortality 24 h” value was found to be 0% and the “% Mortality 48 h” value was 0%.

`CC1(c2nn(-c3c(Cl)cc(C(F)(F)F)cc3Cl)c(NC(=O)C3CC3)c2C#N)CC1(Cl)Cl` (stereo not drawn) [Example 36]: the “% Mortality 24 h” value in series [2] (Conc. 10.0 ppm) amounted to 0%; in series [2] (Conc. 20.0 ppm), 10%. In addition, in series [2] (Conc. 20.0 ppm), the “% Mortality 48 h” value stood at 10%.

Consider `COC=Nc1c(C#N)c(C2(C)CC2(Cl)Cl)nn1-c1c(Cl)cc(C(F)(F)F)cc1Cl` (stereo not drawn) [Example 37], for which, in series [1], the “% Mortality 4 h” value is listed as 10% and the “% Mortality 24 h” value stood at 100%. Moreover, in series [2] (Conc. 2.0 ppm), the “% Mortality 24 h” value was found to be 0% and the “% Mortality 48 h” value was found to be 0%. In series [2] (Conc. 20.0 ppm), the “% Mortality 24 h” value is given as 100% and the “% Mortality 48 h” value came out at 100%.

For the molecule `CN(C)C=Nc1c(C#N)c(C2(C)CC2(Cl)Cl)nn1-c1c(Cl)cc(C(F)(F)F)cc1Cl` (stereo not drawn) [Example 38], in series [2] (Conc. 20.0 ppm), the “% Mortality 24 h” value is 0% and the “% Mortality 48 h” value is recorded as 0%.
